The test system of one experiment is total splenocytes. Description: T cell subsets in total splenocytes 7 days after DC vaccination, flow cytometry. To be noted: by peptide, viral treatments pooled, day 7, vs no treatment control. Format: in vivo, C57BL/6 mice. How it is done:
To determine the effect of SHP-1 inhibition on the initiation of T cell responses, BMDCs were cultured and CD11c^+ MACS purified as described above. […] Following peptide loading DCs were left untreated or transduced with one of 3 different adenoviral vectors: 1) Ad5-SHP-1-shRNA; 2) Ad5-scrambled-shRNA; or 3) Ad5-CMV-empty, an adenovirus carrying a CMV promoter expression vector but no insert. […] Using all combinations of peptide and virus treatment yielded 9 experimental vaccines and one no vaccine control. Vaccines (2×10^6 DCs) were injected i.p. into wt C57BL/6 mice. Seven days following vaccination mice were sacrificed and total splenocytes were analyzed by multi-color flow cytometry for the expression of several T cell subsets. CD3^+ CD8^+IFNγ^+ cells were characterized as CTL effectors, CD3^+ CD4^+IFNγ^+ cells were characterized as Th1 helper T cells, and CD4^+ FOXP3^+ cells were characterized as Treg cells. Flow cytometry data were analyzed by one-way analysis of variance (ANOVA) and Tukey-Kramer HSD multiple comparisons test for percentage of cells falling within each population following treatment. Cells were stained with anti-CD3, anti-CD8 and anti IFNγ to differentiate CD8^+ effectors and CD4^+ Th1 T cell skewing or anti-CD4 and anti-FOXP3 to determine Tregs. To determine if there was a peptide specific effects between the 3 different tumor antigens, viral treatments were pooled for each peptide exposure. Data represent the averages 6 mice per peptide treatment group and 2 mice in the no treatment control group. No significant differences were seen between peptides in the induction of Tregs or CD8^+ effector cells.
(§1) Following peptide loading DCs were left untreated or transduced with one of 3 different adenoviral vectors: 1) Ad5-SHP-1-shRNA; 2) Ad5-scrambled-shRNA; or 3) Ad5-CMV-empty, an adenovirus carrying a CMV promoter expression vector but no insert. Vaccines were injected i.p. into wt C57BL/6 mice and T cell skewing analyzed 7 days later by flow cytometry from total splenocytes. Cells were stained with anti-CD3, anti-CD8 and anti IFNγ for effector and Th1 cells or anti-CD4 and anti-FOXP3 for Tregs. For the peptide specific analysis viral treatments were pooled for each peptide exposure. Data represent the averages 6 mice per peptide treatment and two mice in the no treatment control group. The green diamonds represent the mean and 95% confidence interval for each group from the ANOVA. The black line is the mean of means for the study and red asterisk (*) indicates significant differences (p<0.05 by Tukey-Kramer HSD multiple comparisons test).
as §1, with “the SHP-1” for “the peptide”, “each viral treatment.” for “each peptide exposure.”, “and 2” for “and two”, “ANOVA. […]” for “ANOVA. The black line is the mean of means for the study and red asterisk (*) indicates significant differences (p<0.05 by Tukey-Kramer HSD multiple comparisons test).”
In general terms: In flow cytometry, cells or beads pass a laser one at a time.

For experiment [1], the target named is T1, H-2D^b (Mus musculus, UniProt P01899).
T1 construct: lower relative expression of H-2D^b on RMA-S cells compared to H-2K^b; endogenous in cells; host or cells: RMA-S
T1 sequence (P01899 25-362): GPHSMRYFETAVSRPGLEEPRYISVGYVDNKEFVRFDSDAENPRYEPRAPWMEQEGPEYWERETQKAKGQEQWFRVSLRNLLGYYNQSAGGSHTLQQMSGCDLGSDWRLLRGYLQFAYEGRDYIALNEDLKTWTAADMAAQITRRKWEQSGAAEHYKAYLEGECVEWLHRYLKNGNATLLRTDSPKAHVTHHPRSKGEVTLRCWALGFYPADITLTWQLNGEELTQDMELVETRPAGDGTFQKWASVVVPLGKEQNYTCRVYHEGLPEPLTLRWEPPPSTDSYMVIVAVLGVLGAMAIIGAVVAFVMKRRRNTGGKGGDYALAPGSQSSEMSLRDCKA
T1 sequence (P01887 21-119 partner): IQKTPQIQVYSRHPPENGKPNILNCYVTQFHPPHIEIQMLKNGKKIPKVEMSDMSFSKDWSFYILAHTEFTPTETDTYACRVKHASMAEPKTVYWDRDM
Description: MHC class I surface stabilization assay on RMA-S cells, H-2Db. Format: binding. To be noted: RMA-S cells pulsed with peptide overnight, flow cytometry. How it is done: 10^6 RMA-S cells were incubated overnight at 37° C. with each of the five predicted at the concentrations indicated. Cells were stained with antibodies for H-2K^b (Y-3; ATCC-HB176) or H-2D^b (28-14-8S; ATCC-HB27) followed by a goat anti-mouse-FITC second step and MHC class I surface expression was analyzed by flow cytometry. Specific MFI is the mean fluorescent intensity of the sample-mean fluorescent intensity of goat anti-mouse-FITC second step alone. Error bars represent the standard deviation of triplicate measurements.
(§2) The binding affinity of the five predicted peptides was tested. In a surface stabilization assay using the TAP1 deficient cell line RMA-S. RMA-S cells were pulsed with peptide, at the indicated concentrations, and incubated overnight. Cells were stained with antibodies for H-2K^b (Y-3; ATCC-HB176) or H-2D^b (28-14-8S; ATCC-HB27) followed by a fluorescent-labeled secondary antibody and MHC class I surface expression was analyzed by flow cytometry.

The subject of another experiment is TRAMP C2 tumors. Description: DC vaccination of mice bearing ectopic TRAMP C2 tumors. Format: in vivo, C57BL/6 mice. To be noted: for TRAMP C2 tumor growth (growth curves, mean tumor volumes): by peptide loaded on DC vaccine, single i.p. vaccination 2×10^6 DCs, vs untreated mice; for TRAMP C2 tumor growth rate (mean tumor volume at day 48 post-vaccination, ANOVA): by peptide, pooled across viral treatments, vs no vaccination. How it is done: BMDCs were prepared as described above, transduced with either Ad5-SHP-1-shRNA or the control Ad5-scrambled-shRNA at 40,000 viral particles/cell, and pulsed with one of the six peptides listed in Table 1 (OVA, an irrelevant epitope to TRAMP 2 tumors, served as a negative control peptide) or a lysate of TRAMP C2 cells as a positive control antigen. 6-8 week C57BL/6 mice, bearing TRAMP C2 tumors (7×10^6 cells injected s.c. on the dorsal flank three days prior to vaccination), were given a single i.p. vaccination with 2×10^6 treated DCs or left untreated. Tumors were measured (length and width using calipers) every 2-4 days until termination of the study and tumor volume was estimated using the formula: Tumor volume (mm3)=x^2y×0.5236, where x is the smaller tumor dimension, and y is the larger tumor dimension. A-G) TRAMP tumor growth curves for vaccines loaded with the indicated peptides. Error bars represent the standard error of the mean of 5 mice vaccinated in each treatment. […] H-I) ANOVA analysis of peptide function and SHP-1 function. Data represent the averages 10 mice per peptide treatment and 5 mice in the no treatment control group for H) and 35 mice per viral transduction treatment and 5 mice in the no treatment control group for I). The green diamonds represent the mean and 95% confidence interval for each group from the ANOVA. The black line is the mean of means for the study and red symbols indicate significant differences (p<0.05 by Tukey-Kramer HSD multiple comparisons test).
To determine if there was a significant difference between the various peptides used in these DC vaccinations, mice were pooled across viral treatments (Ad5-SHP-1 shRNA or Ad5-scrambled-shRNA) employing the same peptide. An ANOVA for differences in mean tumor volume at day 48 post-vaccination (the time at which the majority of the vaccinated tumor growth curves change slope) and Tukey-Kramer HSD multiple comparisons test.
Next experiments were conducted to determine if vaccines transduced with Ad5-SHP-1-shRNA inhibited tumor growth compared to transduction with Ad5-scrambled-shRNA or no vaccine treatment, irrespective of what peptide was used in the vaccine.

The test system of a further experiment is AP-1 signaling. Description: AP-1-dependent secreted alkaline phosphatase reporter in RAW cells. Type of experiment: cell-based, murine. The settings on record: transient transfection, IFNγ or LPS stimulation. As to the method:
Function of the mutant and wt SHP-1 constructs was tested in RAW cells by transient transfection of SHP-1 vectors along with a reporter construct expressing a secreted alkaline phosphatase driven by either an NFκB or AP-1 dependent promoter. NFκB and AP-1 are major transcription factors stimulated by toll-like receptor (TLR) and cytokine signaling in immune system cells, and represent likely pathways of SHP-1 inhibition on cellular activation. Cells were transfected with the appropriate construct, reporter and then stimulated with interferon-γ (IFNγ) or bacterial lipopolysaccharide (LPS) as ligands for cytokine and TLR receptors respectively.

Another experiment deals with T2, H-2K^b (mouse, UniProt P01887 21-119; P01901 22-305, limits assumed).
T2 construct: whole, on cells;extracellular; MHC class I on RMA-S cells, detected with antibody Y-3 (ATCC-HB176) in a surface stabilization assay; also called MHC class 1 molecule H-2K^b
T2 sequence (MHC heavy, looked up): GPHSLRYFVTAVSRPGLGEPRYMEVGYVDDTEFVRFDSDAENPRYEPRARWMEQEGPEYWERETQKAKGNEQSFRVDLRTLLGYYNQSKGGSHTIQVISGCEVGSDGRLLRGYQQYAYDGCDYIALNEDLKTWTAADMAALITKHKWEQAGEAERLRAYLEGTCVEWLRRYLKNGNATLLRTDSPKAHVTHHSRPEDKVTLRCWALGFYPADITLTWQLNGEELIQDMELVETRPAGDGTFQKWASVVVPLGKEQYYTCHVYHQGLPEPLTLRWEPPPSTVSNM
T2 sequence (b2m, looked up): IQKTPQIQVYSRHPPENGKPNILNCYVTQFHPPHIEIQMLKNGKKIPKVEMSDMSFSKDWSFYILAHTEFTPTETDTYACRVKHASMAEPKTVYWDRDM
Description: RMA-S surface stabilization assay, flow cytometry with antibody Y-3. As to the method: (§3) 10⁶ RMA-S cells were incubated overnight at 37° C. with each of the five predicted at the concentrations indicated. Cells were stained with antibodies for H-2K^b (Y-3; ATCC-HB176) or H-2D^b (28-14-8S; ATCC-HB27) followed by a goat anti-mouse-FITC second step and MHC class I surface expression was analyzed by flow cytometry. Specific MFI is the mean fluorescent intensity of the sample-mean fluorescent intensity of goat anti-mouse-FITC second step alone. Error bars represent the standard deviation of triplicate measurements. This is representative of 3 separate studies.
as §2, with “cytometry. […] STEAP₈₄₋₉₁ and STEAP₁₈₆₋₁₉₂ bound with an affinity near that of OVA₂₅₈₋₂₆₅, a well characterized strong binding H-2K^b epitope from chicken ovalbumin. […]” for “cytometry.”

Experiment [2] has as its target T3, H-2D^b (mouse, UniProt P01887 21-119; P01899 25-309).
T3 construct: whole, on cells;extracellular; MHC class I on RMA-S cells, detected with antibody 28-14-8S (ATCC-HB27) in a surface stabilization assay; also called MHC class 1 molecule H-2D^b
T3 sequence (MHC heavy, looked up): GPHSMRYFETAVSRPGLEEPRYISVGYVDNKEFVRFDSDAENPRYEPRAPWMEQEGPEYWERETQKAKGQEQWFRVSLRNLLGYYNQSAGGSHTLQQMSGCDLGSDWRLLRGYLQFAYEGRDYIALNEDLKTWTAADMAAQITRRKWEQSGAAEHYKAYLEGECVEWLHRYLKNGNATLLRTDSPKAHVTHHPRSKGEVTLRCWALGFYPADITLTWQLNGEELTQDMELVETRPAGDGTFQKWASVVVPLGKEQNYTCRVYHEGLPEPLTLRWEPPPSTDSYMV
T3 sequence (b2m, looked up): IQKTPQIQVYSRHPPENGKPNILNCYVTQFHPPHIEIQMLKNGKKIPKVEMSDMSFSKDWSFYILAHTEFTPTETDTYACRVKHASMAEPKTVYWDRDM
Description: RMA-S surface stabilization assay, flow cytometry with antibody 28-14-8S. How it is done: as §3
as §2, with “cytometry. […] STEAP₈₄₋₉₁ and STEAP₁₈₆₋₁₉₂ bound with an affinity near that of OVA₂₅₈₋₂₆₅, a well characterized strong binding H-2K^b epitope from chicken ovalbumin. […]” for “cytometry.”

On to VSKINRTEM [STEAP327-335], for which, in the experiment on total splenocytes, the Th1 skewing entry is recorded as “significant”. In the experiment with H-2D^b [1], the “relative binding affinity to H-2Db (MHC class I surface expression)” value (from here on “relative binding affinity to H-2Db”) was “did not appear to bind as well as some of the other peptides”. Moreover, in the experiment on TRAMP C2 tumors, the “TRAMP C2 tumor growth (growth curves, mean tumor volumes)” value is listed as “strong inhibition of tumor growth” and the “TRAMP C2 tumor growth rate (mean tumor volume at day 48 post-vaccination, ANOVA)” value is listed as “significant decrease in tumor growth rate”.
With “ca-SHP-1: constitutively active SHP-1 mutant with N-terminal SH2 domain deleted, HA-tagged (SEQ ID NO:9)”, the AP-1 signaling result in the experiment with AP-1 signaling is on record as “suppressing AP-1 signaling”.
For the molecule AQMNNRDCL [PSCA29-37], the “relative binding affinity to H-2Db” value with H-2D^b [1] was “did not appear to bind as well as some of the other peptides”. In the experiment on TRAMP C2 tumors, the “TRAMP C2 tumor growth (growth curves, mean tumor volumes)” value is “strong inhibition of tumor growth” and the “TRAMP C2 tumor growth rate (mean tumor volume at day 48 post-vaccination, ANOVA)” value was “significant decrease in tumor growth rate”.
As to SVYDFFVWL [Trp-2, reference compound], the Th1 skewing entry in the experiment with total splenocytes was “significant”.
Consider “SIINFEKL [OVA258-265, reference compound]”, for which the “TRAMP C2 tumor growth (growth curves, mean tumor volumes)” value in the experiment with TRAMP C2 tumors is “equivalent to mice receiving no vaccine treatment”.
Turning to LLLGTVHAL [STEAP262-270], the “relative binding affinity to H-2Db” value on H-2D^b [1] is on record as “no detectable binding at any peptide concentration”.

B1: STEAP186-192 (peptide)
peptide: RSYRYKLL
As to B1, the binding result with H-2K^b is listed as “binds”.

B2: PSCA29-37 (peptide)
peptide: AQMNNRDCL
On to B2, for which the binding result with H-2D^b [2] was “binds”.

B3: STEAP84-91 (peptide)
peptide: LTFLYTLL
As to B3, in the experiment with H-2K^b, the binding result is recorded as “binds”.

B4: STEAP327-335 (peptide)
peptide: VSKINRTEM
Consider B4, for which the binding result with H-2D^b [2] is listed as “binds”.

Values taken from patent publication US20090123501A1, “INHIBITION OF THE SH2-DOMAIN CONTAINING PROTEIN TYR-PHOSPHATASE, SHP-1, TO ENHANCE VACCINES” (Baylor College of Medicine, priority 2007, published 2009).
